Experimental data published in patent publication US20090275583A1, “ANTIVIRAL COMPOUNDS AND USE THEREOF” (Myriad Genetics, Incorporated, priority 2006, published 2009).
Where two headings read alike, the source gives them in different places.

Experiments:
HIV-1NL4-3 = experiment: P4-MAGI assay; format: cell-based
Procedure, shortened: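 Cytotoxicity (TC50, 50% growth inhibition) came from WST-1 in uninfected cells. For antiviral activity, compound at rising concentrations was added immediately after HIV-1NL4-3 inoculation (MOI 1, DEAE-Dextran) of P4 cells, CD4+ HeLa cells expressing β-galactosidase from a minimal HIV-1 LTR upon infection.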

[1] = test system: HIV-1 laboratory strain, NL4-3; experiment: MT-4 cytoprotection assay; format: cell-based
Procedure, shortened: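 MT-4 cells mock- or batch-infected with NL4-3 (MOI 0.0005) for 2 h, washed, then cultured 4 days with increasing compound concentrations. Viability read by WST-1 tetrazolium reduction: cytoprotection in infected cells, toxicity in mock-infected cells.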

[2] = Human immunodeficiency virus 1, 24 h, P4 cells, 24 hour incubation, β-galactosidase expression, read-out: P4-MAGI IC50
[3] = Human immunodeficiency virus 1, text statement, less than about 100 nm, read-out: P4-MAGI assay IC50
[4] = Human immunodeficiency virus 1, NL43, MT4, 96 h, MT-4 cells, four days incubation, WST-1 readout, read-out: MT4 EC50
[5] = Human immunodeficiency virus 1, NL43, less than about 100 nm, read-out: MT-4 assay EC50 (concentration of compound that reduces the virus induced cytopathic effect by 50%)

Compound | IC50 (HIV-1NL4-3; [2]) [nM] | IC50 (HIV-1NL4-3; [3]) [nM] | EC50 [1, 4] [nM] | EC50 [1, 5] [nM]
C=C(C)[C@@H]1CC[C@]2(C(=O)NCc3cccc(C(=O)NCCc4ccc(C(=O)O)s4)c3)CC[C@]3(C)C(CCC4[C@@]5(C)CC[C@H](O)C(C)(C)C5CC[C@]43C)C12 (some centres unmarked) [Example 48] | 29 | < 100 | 63 | < 100
C=C(C)[C@@H]1CC[C@]2(C(=O)NCCc3cccc(C(=O)NCCCCC(=O)O)c3)CC[C@]3(C)C(CCC4[C@@]5(C)CC[C@H](O)C(C)(C)C5CC[C@]43C)C12 (some centres unmarked) [Example 56] | 46.7 | < 100 | 310 | –
C=C(C)[C@@H]1CC[C@]2(C(=O)NCCc3cccc(C(=O)NCCC(=O)O)c3)CC[C@]3(C)C(CCC4[C@@]5(C)CC[C@H](O)C(C)(C)C5CC[C@]43C)C12 (some centres unmarked) [Example 57] | 98.2 | < 100 | 1200 | –
C=C(C)[C@@H]1CC[C@]2(C(=O)NCCc3cccc(C(=O)NCc4cccc(C(=O)O)c4)c3)CC[C@]3(C)C(CCC4[C@@]5(C)CC[C@H](O)C(C)(C)C5CC[C@]43C)C12 (some centres unmarked) [Example 58] | 18.6 | < 100 | 18 | < 100
C=C(C)[C@@H]1CC[C@]2(C(=O)NCCc3cccc(C(=O)NCCc4cccc(C(=O)O)c4)c3)CC[C@]3(C)C(CCC4[C@@]5(C)CC[C@H](O)C(C)(C)C5CC[C@]43C)C12 (some centres unmarked) [Example 59] | 66.1 | < 100 | 68 | < 100
C=C(C)[C@@H]1CC[C@]2(C(=O)NCCc3cccc(C(=O)Nc4cccc(C(=O)O)c4)c3)CC[C@]3(C)C(CCC4[C@@]5(C)CC[C@H](O)C(C)(C)C5CC[C@]43C)C12 (some centres unmarked) [Example 60] | 31 | < 100 | 248 | –
C=C(C)[C@@H]1CC[C@]2(C(=O)NCCc3cccc(C(=O)Nc4cc(C(=O)O)ccc4N)c3)CC[C@]3(C)C(CCC4[C@@]5(C)CC[C@H](O)C(C)(C)C5CC[C@]43C)C12 (some centres unmarked) [Example 61] | 65 | < 100 | 2300 | –
C=C(C)[C@@H]1CC[C@]2(C(=O)NCCc3cccc(C(=O)NCC(=O)OCC)c3)CC[C@]3(C)C(CCC4[C@@]5(C)CC[C@H](O)C(C)(C)C5CC[C@]43C)C12 (some centres unmarked) [Example 62] | 40.4 | < 100 | 230 | –
C=C(C)[C@@H]1CC[C@]2(C(=O)NCCc3cccc(C(=O)NC(CCC(=O)OC)C(=O)OC)c3)CC[C@]3(C)C(CCC4[C@@]5(C)CC[C@H](O)C(C)(C)C5CC[C@]43C)C12 (some centres unmarked) [Example 63] | 35.9 | < 100 | 90 | < 100
C=C(C)[C@@H]1CC[C@]2(C(=O)NCCc3cccc(C(=O)N[C@@H](CC(C)C)[C@@H](O)CC(=O)O)c3)CC[C@]3(C)C(CCC4[C@@]5(C)CC[C@H](O)C(C)(C)C5CC[C@]43C)C12 (some centres unmarked) [Example 65] | 156 | – | 83 | < 100
C=C(C)[C@@H]1CC[C@]2(C(=O)NCCc3cccc(C(=O)NCc4ccc(C(=O)O)cc4)c3)CC[C@]3(C)C(CCC4[C@@]5(C)CC[C@H](O)C(C)(C)C5CC[C@]43C)C12 (some centres unmarked) [Example 67] | 7.5 | < 100 | 23 | < 100
C=C(C)[C@@H]1CC[C@]2(C(=O)NCCc3cccc(C(=O)NCCc4ccc(C(=O)O)cc4)c3)CC[C@]3(C)C(CCC4[C@@]5(C)CC[C@H](O)C(C)(C)C5CC[C@]43C)C12 (some centres unmarked) [Example 68] | 15.2 | < 100 | 64 | < 100
C=C(C)[C@@H]1CC[C@]2(C(=O)NCCc3cccc(C(=O)NCc4ccc(C(=O)O)cc4F)c3)CC[C@]3(C)C(CCC4[C@@]5(C)CC[C@H](O)C(C)(C)C5CC[C@]43C)C12 (some centres unmarked) [Example 69] | 11 | < 100 | 670 | –
C=C(C)[C@@H]1CC[C@]2(C(=O)NCCc3cccc(C(=O)NCc4ccc(C(=O)O)s4)c3)CC[C@]3(C)C(CCC4[C@@]5(C)CC[C@H](O)C(C)(C)C5CC[C@]43C)C12 (some centres unmarked) [Example 70] | 19.7 | < 100 | 1.6 | < 100
C=C(C)[C@@H]1CC[C@]2(C(=O)NCCc3cccc(C(=O)NCC(N)=O)c3)CC[C@]3(C)C(CCC4[C@@]5(C)CC[C@H](O)C(C)(C)C5CC[C@]43C)C12 (some centres unmarked) [Example 72] | 194 | – | 10000 | –
C=C(C)[C@@H]1CC[C@]2(C(=O)NCCc3cccc(C(=O)NCc4cccc(C(=O)O)c4F)c3)CC[C@]3(C)C(CCC4[C@@]5(C)CC[C@H](O)C(C)(C)C5CC[C@]43C)C12 (some centres unmarked) [Example 73] | 16.2 | < 100 | 1.5 | < 100
C=C(C)[C@@H]1CC[C@]2(C(=O)NCCc3cccc(C(=O)NCc4cccc(C(=O)OC)c4F)c3)CC[C@]3(C)C(CCC4[C@@]5(C)CC[C@H](O)C(C)(C)C5CC[C@]43C)C12 (some centres unmarked) [Example 74] | 27.6 | < 100 | 0.8 | < 100
C=C(C)[C@@H]1CC[C@]2(C(=O)NCCc3cccc(C(=O)NCCc4ccc(C(=O)O)cc4F)c3)CC[C@]3(C)C(CCC4[C@@]5(C)CC[C@H](O)C(C)(C)C5CC[C@]43C)C12 (some centres unmarked) [Example 75] | 36.3 | < 100 | 1.4 | < 100
C=C(C)[C@@H]1CC[C@]2(C(=O)NCCc3cccc(C(=O)NCc4ccc(C(=O)O)cn4)c3)CC[C@]3(C)C(CCC4[C@@]5(C)CC[C@H](O)C(C)(C)C5CC[C@]43C)C12 (some centres unmarked) [Example 76] | 10.4 | < 100 | 89 | < 100
C=C(C)[C@@H]1CC[C@]2(C(=O)NCc3cccc(CNCc4nc5ccc(C(=O)O)cc5[nH]4)c3)CC[C@]3(C)C(CCC4[C@@]5(C)CC[C@H](O)C(C)(C)C5CC[C@]43C)C12 (some centres unmarked) [Example 80] | 242 | – | 1000 | –
C=C(C)[C@@H]1CC[C@]2(C(=O)NCc3ccnc(C(=O)NCCc4ccc(C(=O)O)cc4)c3)CC[C@]3(C)C(CCC4[C@@]5(C)CC[C@H](O)C(C)(C)C5CC[C@]43C)C12 (some centres unmarked) [Example 92] | 121 | – | 4870 | –
C=C(C)[C@@H]1CC[C@]2(C(=O)NCCc3cccc(C(=O)NCc4ccc(C(=O)OC)cc4)c3F)CC[C@]3(C)C(CCC4[C@@]5(C)CC[C@H](O)C(C)(C)C5CC[C@]43C)C12 (some centres unmarked) [Example 93] | 33.9 | < 100 | 40 | < 100
C=C(C)[C@@H]1CC[C@]2(C(=O)NCCc3cccc(C(=O)NCc4ccc(C(=O)O)cc4)c3F)CC[C@]3(C)C(CCC4[C@@]5(C)CC[C@H](O)C(C)(C)C5CC[C@]43C)C12 (some centres unmarked) [Example 94] | 70.5 | < 100 | 290 | –
C=C(C)[C@@H]1CC[C@]2(C(=O)NCc3cc(C(=O)NCCc4ccc(C(=O)O)cc4)ccc3F)CC[C@]3(C)C(CCC4[C@@]5(C)CC[C@H](O)C(C)(C)C5CC[C@]43C)C12 (some centres unmarked) [Example 95] | 11.2 | < 100 | 1.5 | < 100
C=C(C)[C@@H]1CC[C@]2(C(=O)NCc3cc(C(=O)NCCc4ccc(C(=O)OC)cc4)ccc3F)CC[C@]3(C)C(CCC4[C@@]5(C)CC[C@H](O)C(C)(C)C5CC[C@]43C)C12 (some centres unmarked) [Example 96] | 33 | < 100 | 3.5 | < 100
C=C(C)[C@@H]1CC[C@]2(C(=O)NCc3cc(C(=O)NCCc4cccc(C(=O)O)c4)ccc3F)CC[C@]3(C)C(CCC4[C@@]5(C)CC[C@H](O)C(C)(C)C5CC[C@]43C)C12 (some centres unmarked) [Example 97] | 23.7 | < 100 | 1 | < 100
C=C(C)[C@@H]1CC[C@]2(C(=O)NCc3cc(C(=O)NCCc4cccc(C(=O)OC)c4)ccc3F)CC[C@]3(C)C(CCC4[C@@]5(C)CC[C@H](O)C(C)(C)C5CC[C@]43C)C12 (some centres unmarked) [Example 98] | 57.7 | < 100 | 13 | < 100
C=C(C)[C@@H]1CC[C@]2(C(=O)NCc3cc(C(=O)NCc4ccc(C(=O)O)cc4)ccc3F)CC[C@]3(C)C(CCC4[C@@]5(C)CC[C@H](O)C(C)(C)C5CC[C@]43C)C12 (some centres unmarked) [Example 99] | 20.1 | < 100 | 2.8 | < 100
